22 compounds from US11053241B2, “TYK2 inhibitors and uses thereof” (Nimbus Lakshmi, Inc., priority 2018, dated 2021) can be followed below.

Each structure is given as a SMILES string.

Sequence of human TYK2 (JH2domain-pseudokinase) (P29597 556-888): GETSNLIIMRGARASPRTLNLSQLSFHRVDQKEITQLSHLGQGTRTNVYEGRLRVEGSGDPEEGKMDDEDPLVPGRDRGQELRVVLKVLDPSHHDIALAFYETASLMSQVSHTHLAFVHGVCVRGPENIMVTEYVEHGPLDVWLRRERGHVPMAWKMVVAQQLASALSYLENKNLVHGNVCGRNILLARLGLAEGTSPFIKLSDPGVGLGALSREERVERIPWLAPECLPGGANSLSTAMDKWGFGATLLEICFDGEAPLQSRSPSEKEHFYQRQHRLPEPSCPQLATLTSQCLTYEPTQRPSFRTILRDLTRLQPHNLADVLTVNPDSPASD

The experiment deals with human TYK2 (JH2domain-pseudokinase) (Homo sapiens (Human), UniProt P29597). Nature of the experiment: TYK2 JH2 Domain Binding Assay (KINOMEscan). Conditions: 11-point 3-fold dilution, top concentration 30,000 nM, duplicate. The procedure:
Binding constants for compounds of the present invention against the JH2 domain were determined by the following protocol for a KINOMEscan® assay (DiscoveRx). A fusion protein of a partial length construct of human TYK2 (JH2domain-pseudokinase) (amino acids G556 to D888 based on reference sequence NP_003322.3) and the DNA binding domain of NFkB was expressed in transiently transfected HEK293 cells. From these HEK 293 cells, extracts were prepared in M-PER extraction buffer (Pierce) in the presence of Protease Inhibitor Cocktail Complete (Roche) and Phosphatase Inhibitor Cocktail Set II (Merck) per manufacturers' instructions. The TYK2(JH2domain-pseudokinase) fusion protein was labeled with a chimeric double-stranded DNA tag containing the NFkB binding site (5′-GGGAATTCCC-3′) fused to an amplicon for qPCR readout, which was added directly to the expression extract (the final concentration of DNA-tag in the binding reaction is 0.1 nM).
Streptavidin-coated magnetic beads (Dynal M280) were treated with a biotinylated small molecule ligand for 30 minutes at room temperature to generate affinity resins for the binding assays. The liganded beads were blocked with excess biotin and washed with blocking buffer (SeaBlock (Pierce), 1% BSA, 0.05% Tween 20, 1 mM DTT) to remove unbound ligand and to reduce nonspecific binding.
The binding reaction was assembled by combining 16 μl of DNA-tagged kinase extract, 3.8 μl liganded affinity beads, and 0.18 μl test compound (PBS/0.05% Tween 20/10 mM DTT/0.1% BSA/2 μg/ml sonicated salmon sperm DNA). Extracts were used directly in binding assays without any enzyme purification steps at a ≥10,000-fold overall stock dilution (final DNA-tagged enzyme concentration <0.1 nM). Extracts were loaded with DNA-tag and diluted into the binding reaction in a two step process. First extracts were diluted 1:100 in 1× binding buffer (PBS/0.05% Tween 20/10 mM DTT/0.1% BSA/2 μg/ml sonicated salmon sperm DNA) containing 10 nM DNA-tag. This dilution was allowed to equilibrate at room temperature for 15 minutes and then subsequently diluted 1:100 in 1× binding buffer. All reactions were performed in polypropylene 384-well plates. Each was a final volume of 0.02 mL. Assays were incubated with shaking for 1 hour at room temperature. Then the beads were pelleted and washed with wash buffer (1×PBS, 0.05% Tween 20) to remove displaced kinase and test compound. The washed based were re-suspended in elution buffer (1×PBS, 0.05% Tween 20, 0.5 μM non-biotinylated affinity ligand) and incubated at room temperature with shaking for 30 minutes. The kinase concentration in the eluates was measured by qPCR. qPCR reactions were assembled by adding 2.5 μL of kinase eluate to 7.5 μL of qPCR master mix containing 0.15 μM amplicon primers and 0.15 μM amplicon probe. The qPCR protocol consisted of a 10 minute hot start at 95° C., followed by 35 cycles of 95° C. for 15 seconds, 60° C. for 1 minute.
Test compounds were prepared as 111× stocks in 100% DMSO. Kd values were determined using an 11-point 3-fold compound dilution series with three DMSO control points. All compounds for Kd measurements are distributed by acoustic transfer (non-contact dispensing) in 100% DMSO. The compounds were then diluted directly into the assays such that the final concentration of DMSO was 0.9%. The Kd values were determined using a compound top concentration of 30,000 nM. Kd measurements were performed in duplicate.
Binding constants (Kds) were calculated with a standard dose-response curve using the Hill equation: […]
The Hill Slope was set to −1. Curves were fitted using a non-linear least square fit with the Levenberg-Marquardt algorithm (Levenberg, K., A method for the solution of certain non-linear problems in least squares, Q. Appl. Math. 2, 164-168 (1944)).
As to `CNC(=O)c1cnc(NC(=O)C2CC2)c2[nH]c(-c3cccc(-c4nc(C)n(C)n4)c3F)cc12` [Compound I-73, 7-(cyclopropanecarboxamido)-2-(3-(1,5-dimethyl-1H-1,2,4-triazol-3-yl)-2-fluorophenyl)-N-methyl-1H-pyrrolo[2,3-c]pyridine-4-carboxamide], the Kd is under 0.2 nM. For `CNC(=O)c1cnc(NC(=O)C2CC2)c2[nH]c(-c3cccc([C@H]4C[C@H](OC)C4)c3F)cc12` [Compound I-94, 7-(cyclopropanecarboxamido)-2-(2-fluoro-3-((1r,3r)-3-methoxycyclobutyl)phenyl)-N-methyl-1H-pyrrolo[2,3-c]pyridine-4-carboxamide] the value was under 0.2 nM. On to `CNC(=O)c1cnc(NC(=O)C2CC2)c2[nH]c(-c3cccc(C4CCCO4)c3F)cc12` (stereo not shown) [Compound I-95, 7-(cyclopropanecarboxamido)-2-(2-fluoro-3-(tetrahydrofuran-2-yl)phenyl)-N-methyl-1H-pyrrolo[2,3-c]pyridine-4-carboxamide], for which the Kd is under 0.2 nM. `CNC(=O)c1cnc(NC(=O)C2CC2)c2[nH]c(-c3cccc(-c4cn5c(n4)COCC5)c3F)cc12` [Compound I-79, 7-(cyclopropanecarboxamido)-2-(3-(5,6-dihydro-8H-imidazo[2,1-c][1,4]oxazin-2-yl)-2-fluorophenyl)-N-methyl-1H-pyrrolo[2,3-c]pyridine-4-carboxamide] registered a Kd of under 0.2 nM. As for `CNC(=O)c1cnc(NC(=O)C2CC2)c2[nH]c(-c3ccc(-n4ncnc4C)cc3F)cc12` [Compound I-65, 7-(cyclopropanecarboxamido)-2-(2-fluoro-4-(5-methyl-1H-1,2,4-triazol-1-yl)phenyl)-N-methyl-1H-pyrrolo[2,3-c]pyridine-4-carboxamide], the figure is under 0.2 nM; as for `CNC(=O)c1cnc(NC(=O)C2CC2)c2[nH]c(-c3ccc(-c4nccn4C)cc3F)cc12` [Compound I-58, 7-(cyclopropanecarboxamido)-2-(2-fluoro-4-(1-methyl-1H-imidazol-2-yl)phenyl)-N-methyl-11H-pyrrolo[2,3-c]pyridine-4-carboxamide], under 0.2 nM. For `CNC(=O)c1cnc(NC(=O)C2CC2)c2[nH]c(-c3cccc(-c4nc(C)cn4C)n3)cc12` [Compound I-49, 7-(cyclopropanecarboxamido)-2-(6-(1,4-dimethyl-1H-imidazol-2-yl)pyridin-2-yl)-N-methyl-1H-pyrrolo[2,3-c]pyridine-4-carboxamide] the value was under 0.2 nM. In turn, `CNC(=O)c1cnc(NC(=O)C2CC2)c2[nH]c(-c3ccc(OC)cc3[C@H]3COCCO3)cc12` [Compound I-71] showed a dissociation constant (Kd) of over 10 nM. For `CNC(=O)c1cnc(NC(=O)C2CC2)c2[nH]c(-c3cccc(-c4cnn(C)c4)c3C#N)cc12` [Compound I-45, 2-(2-cyano-3-(1-methyl-1H-pyrazol-4-yl)phenyl)-7-(cyclopropane-carboxamido)-N-methyl-1H-pyrrolo[2,3-c]pyridine-4-carboxamide] the value was 0.2 to 1 nM. Regarding `CNC(=O)c1cnc(NC(=O)C2CC2)c2[nH]c(-c3c(F)cc(-c4nccn4C)cc3N3CCC(F)(F)C3)cc12` [Compound I-83, 7-(cyclopropanecarboxamido)-2-(2-(3,3-difluoropyrrolidin-1-yl)-6-fluoro-4-(1-methyl-1H-imidazol-2-yl)phenyl)-N-methyl-1H-pyrrolo[2,3-c]pyridine-4-carboxamide], the equilibrium dissociation constant (Kd) is under 0.2 nM. For `CNC(=O)c1cnc(NC(=O)C2CC2)c2[nH]c(-c3ccc(OC)cc3[C@@H]3COCCO3)cc12` [Compound I-72] the value was over 10 nM; for `CNC(=O)c1cnc(NC(=O)C2CC2)c2[nH]c(-c3cccn(C4CCCOC4)c3=O)cc12` (stereo not shown) [Compound I-43, 7-(cyclopropanecarboxamido)-N-methyl-2-(2-oxo-1-(tetrahydro-2H-pyran-3-yl)-1,2-dihydropyridin-3-yl)-1H-pyrrolo[2,3-c]pyridine-4-carboxamide], 0.2 to 1 nM. For `CNC(=O)c1cnc(NC(=O)C2CC2)c2[nH]c(-c3ccc(-c4ncc(C)n4C)cc3F)cc12` [Compound I-68, 7-(cyclopropanecarboxamido)-2-(4-(1,5-dimethyl-1H-imidazol-2-yl)-2-fluorophenyl)-N-methyl-1H-pyrrolo[2,3-c]pyridine-4-carboxamide] the value was under 0.2 nM; for `CNC(=O)c1cnc(NC(=O)C2CC2)c2[nH]c(-c3cccc(-c4nnn(C)n4)c3OC)cc12` [Compound I-59, 7-(cyclopropanecarboxamido)-2-(2-methoxy-3-(2-methyl-2H-tetrazol-5-yl)phenyl)-N-methyl-1H-pyrrolo[2,3-c]pyridine-4-carboxamide], 0.2 to 1 nM.

In the case of `CNC(=O)c1cnc(NC(=O)C2CC2)c2[nH]c(-c3ccc(C(=O)N4CC(F)(F)C4)cc3F)cc12` [Compound I-98, 7-(cyclopropanecarboxamido)-2-(4-(3,3-difluoroazetidine-1-carbonyl)-2-fluorophenyl)-N-methyl-1H-pyrrolo[2,3-c]pyridine-4-carboxamide], the Kd is under 0.2 nM. For `CCOc1cc(-c2nccn2C)cc(F)c1-c1cc2c(C(=O)NC)cnc(NC(=O)C3CC3)c2[nH]1` [Compound I-78, 7-(cyclopropanecarboxamido)-2-(2-ethoxy-6-fluoro-4-(1-methyl-1H-imidazol-2-yl)phenyl)-N-methyl-1H-pyrrolo[2,3-c]pyridine-4-carboxamide] the value was under 0.2 nM; for `CNC(=O)c1cnc(NC(=O)C2CC2)c2[nH]c(-c3ccc(C(=O)N4CC(F)(F)C4)cn3)cc12` [Compound I-53, 7-(cyclopropanecarboxamido)-2-(5-(3,3-difluoroazetidine-1-carbonyl)pyridin-2-yl)-N-methyl-1H-pyrrolo[2,3-c]pyridine-4-carboxamide], 0.2 to 1 nM. As for `CNC(=O)c1cnc(Nc2ccn(C)n2)c2[nH]c(-c3cccc(-c4cnc(C)o4)c3F)cc12` [Compound I-99, 2-(2-fluoro-3-(2-methyloxazol-5-yl)phenyl)-N-methyl-7-((1-methyl-1H-pyrazol-3-yl)amino)-1H-pyrrolo[2,3-c]pyridine-4-carboxamide], the figure is under 0.2 nM. With `CNC(=O)c1cnc(NC(=O)C2CC2)c2[nH]c(-c3cccn(C4CCCOC4)c3=O)cc12` (stereo in doubt) [Compound I-55, (S)-7-(cyclopropanecarboxamido)-N-methyl-2-(2-oxo-1-(tetrahydro-2H-pyran-3-yl)-1,2-dihydropyridin-3-yl)-1H-pyrrolo[2,3-c]pyridine-4-carboxamide], the Kd lay in the range of 0.2 to 1 nM. As for `CNC(=O)c1cnc(NC(=O)C2CC2)c2[nH]c(-c3cccc(-c4cn5c(n4)C(C)(C)OCC5)c3F)cc12` [Compound I-84, 7-(cyclopropanecarboxamido)-2-(3-(8,8-dimethyl-5,6-dihydro-8H-imidazo[2,1-c][1,4]oxazin-2-yl)-2-fluorophenyl)-N-methyl-1H-pyrrolo[2,3-c]pyridine-4-carboxamide], the figure is under 0.2 nM; as for `CNC(=O)c1cnc(NC(=O)C2CC2)c2[nH]c(-c3ccn(-c4cnn(C)c4)n3)cc12` [Compound I-80, 7-(cyclopropanecarboxamido)-N-methyl-2-(1′-methyl-1′H-[1,4′-bipyrazol]-3-yl)-1H-pyrrolo[2,3-c]pyridine-4-carboxamide], under 0.2 nM. For `CNC(=O)c1cnc(NC(=O)C2CC2)c2[nH]c(-c3ccc(-c4nc(C)c(C)n4C)cc3F)cc12` [Compound I-74, 7-(cyclopropanecarboxamido)-2-(2-fluoro-4-(1,4,5-trimethyl-1H-imidazol-2-yl)phenyl)-N-methyl-1H-pyrrolo[2,3-c]pyridine-4-carboxamide] the value was under 0.2 nM.

For orientation: Kd means a measure of binding affinity in units of concentration. Read a high Kd as weaker binding.
